# According to US20240368664A1, “LIVE YEAST BIOSENSORS AND METHODS OF USE THEREOF” (priority 2021, published 2024):
# Like-named read-outs stand apart in the source and are kept apart here. Residues, ends and D or L forms follow the SMILES beside them. No end group written: not given here.
# T1: Schizosaccharomyces pombe pheromone GPCR SpSte2 (Schizosaccharomyces pombe) (UniProt Q00619)
# T1 sequence: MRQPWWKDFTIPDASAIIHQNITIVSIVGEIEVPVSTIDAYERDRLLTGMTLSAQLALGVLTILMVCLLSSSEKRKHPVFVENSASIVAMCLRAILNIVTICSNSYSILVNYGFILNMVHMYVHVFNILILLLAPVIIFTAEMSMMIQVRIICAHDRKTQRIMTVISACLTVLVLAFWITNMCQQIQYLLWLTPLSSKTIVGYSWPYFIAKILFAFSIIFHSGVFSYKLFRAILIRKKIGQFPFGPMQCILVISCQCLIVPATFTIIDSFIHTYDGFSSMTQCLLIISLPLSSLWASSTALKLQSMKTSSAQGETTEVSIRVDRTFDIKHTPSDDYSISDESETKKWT
# T2: S. cerevisiae GPCR (Saccharomyces cerevisiae, UniProt D6VTK4)
# T2 sequence (D6VTK4 whole entry, looked up): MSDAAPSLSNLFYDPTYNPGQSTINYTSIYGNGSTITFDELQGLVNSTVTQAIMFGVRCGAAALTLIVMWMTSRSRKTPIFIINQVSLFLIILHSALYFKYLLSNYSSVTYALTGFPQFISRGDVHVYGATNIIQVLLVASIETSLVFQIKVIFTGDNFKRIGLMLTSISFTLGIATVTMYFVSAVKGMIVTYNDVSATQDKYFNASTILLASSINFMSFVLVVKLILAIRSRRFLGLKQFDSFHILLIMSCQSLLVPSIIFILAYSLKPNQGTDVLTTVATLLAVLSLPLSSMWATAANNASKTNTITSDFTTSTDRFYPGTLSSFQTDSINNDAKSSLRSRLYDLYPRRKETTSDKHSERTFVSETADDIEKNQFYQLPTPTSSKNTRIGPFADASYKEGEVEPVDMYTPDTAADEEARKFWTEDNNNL
# What was measured:
# [1] = biological target: T1, Schizosaccharomyces pombe pheromone GPCR SpSte2 (Schizosaccharomyces pombe); assay: cell-based or functional assay
# [2] = biological target: T2, S. cerevisiae GPCR; assay: Aspergillus spp peptide/GPCR orthogonality matrix, S. cerevisiae GPCR; format: cell-based; settings: 40 μM peptide
# Description: FIGS. 6A-6B show Aspergillus spp peptide cross-reactivity with Aspergillus spp GPCRs. […] The test concentration was set at 40 μM of a given peptide ligand.
# Next, 13 GPCRs of all genome-mined Aspergillus species, including A. fumigatus from Example 1 and S. cerevisiae, along with inducible fluorescent readout were integrated into optimized parent strain. S. cerevisiae was included to test cross-reactivity with S. cerevisiae GPCR and peptide, since this peptide/GPCR pair will be used for building multi-cellular amplification communities. Then, each strain was activated with all Aspergillus peptides and S. cerevisiae peptide (FIG. 6A). Most of the Aspergillus GPCRs were responsive to at least one peptide, except A. terreus, A. flavus/A. oryzae (same GPCR sequence), A. niger and A. nidulans which were not responsive to any tested peptide. […] The majority of peptides have the same sequence (A. fischeri, A. fumigatus, A. lentulus, A. novofumigatus, A. udagawae and A. viridinutans) and the other active peptides differ only in the third amino acid position from N-terminus (A. clavatus, A. flavus and A. oryzae).
# [3] = test system: live yeast biosensor
# [4] = test system: CaSte2; settings: CaSte2 (yTC384), no protease; Hill function best-fit ± standard error
# [5] = test system: CaSte2 with protease CaBar1; settings: for Hill Slope: CaSte2 + CaBar1 (yBB02), Hill function best-fit ± standard error; for EC50: biosensor with protease CaBar1 under intermediate pRPL18B promoter, 10-h incubation; for cleavage by CaBar1 protease: judged from CaSte2 activation with/without CaBar1
# [6] = test system: CaSte2 with protease CaBar1; settings: read-out: "EC50" of the first response phase; biphasic dose-response, phase treated as separate Hill fit
# [7] = biological target: S. cerevisiae pheromone peptide (ScPep) (Saccharomyces cerevisiae); assay: cell-based or functional assay
# [8] = biological target: C. albicans pheromone peptide (CaPep) (Candida albicans); assay: cell-based or functional assay
# [9] = test system: SjSte2 with peptide proteases; format: cell-based, Schizosaccharomyces japonicus; settings: read-out: apparent EC50
# [10] = test system: CaSte2 with protease CaBar1
# [11] = test system: fungal cognate receptors; format: cell-based
# [12] = test system: AfuSte2; format: cell-based, A. fumigatus
# [13] = test system: AfuSte2 (first member), ScSte2 (second member); format: cell-based, A. fumigatus
# [14] = test system: AfuSte2; format: cell-based, A. fumigatus; remark: listed apart in the source
# [15] = test system: AfuSte2; format: cell-based, Aspergillus fumigatus; settings: nasal swab solution; 30° C. and room temperature
# Description: (left) and room temperature (right).
# To determine whether the yeast biosensor can detect the targeted pathogen analyte in the presence of the nasal swab solution. The yeast biosensor's ability to detect its cognate fungal biomarker in the presence of the nasal swab solution was tested. […] This experiment involved a biosensor containing an Ste2 homolog from Aspergillus fumigatus (AfuSte2) that produces lycopene in response to its cognate pheromone peptide (AfuPep). […] Experiments were carried out at yeast standard growth conditions, which include at 30° C.; experiments also needed to be conducted at at-home-like temperatures to ensure that the biosensor is viable and active in these settings. When incubated at room temperature, the yeast still produced an observable difference in lycopene compared to the water negative control (FIG. 24).
# [16] = test system: AfuSte2
# [17] = biological target: S. japonicus pheromone peptide (SjPep) (Schizosaccharomyces japonicus); assay: cell-based or functional assay
# [18] = test system: CaSte2; assay: CaSte2 biosensor with lycopene readout, without CaBar1 (yTC646); settings: -CaBar1 strain; 50-300 nM peptide; 1-h preincubation, 7-h incubation
# [19] = biological target: S. octosporus pheromone peptide (SoPep) (Schizosaccharomyces octosporus); assay: cell-based or functional assay
# [20] = fine-tuned optimized strain (yTC453/pDR01)
# [21] = natural signaling pathway (yMJ194/pDR01)
molecule,measurement,setting,value
S. pombe pheromone peptide (SpPep),"apparent EC50, ymTurquoise2, strain co-expressing SpSxa2",[1],100000 nM
"WCWLPGQGC [A. terreus peptide, A. terreus pheromone peptide]",cross-reaction with S. cerevisiae GPCR,[2],cross-reacted
Tween20,concentration that does not impact the vitality and function of the live yeast biosensor,[3],up to 0.05%
GARLTNFGYFEPA [CaPep2A13A],Hill Slope,[4],1.2 ± 0.1
same,Hill Slope,[5],0.86 ± 0.10
same,EC50,[5],~70 nM
same,cleavage by CaBar1 protease,[5],non-cleavable
same,EC50,[6],~0.3 nM
Saccharomyces cerevisiae Bar1 aspartyl protease (ScBar1) (from UniProt P12630 25-587) (enzyme),shift of apparent EC50 on the cognate GPCR with the protease co-expressed (order of magnitude),[7],1
Candida albicans Bar1 aspartyl protease (CaBar1) (enzyme),shift of apparent EC50 on the cognate GPCR with the protease co-expressed (order of magnitude),[8],1
VSDRVKQMLSHWWNERNPDTANL [SjPep],EC50,[9],> 100000 nM
CC(C)C[C@H](NC(=O)[C@H](CCCNC(=N)N)NC(=O)[C@H](Cc1ccccc1)NC(=O)CN)C(=O)N[C@H](C(=O)N[C@@H](CC(N)=O)C(=O)N[C@@H](Cc1ccccc1)C(=O)NCC(=O)N[C@@H](Cc1ccc(O)cc1)C(=O)N[C@@H](Cc1ccccc1)C(=O)N[C@@H](CCC(=O)O)C(=O)N1CCC[C@H]1C(=O)N[C@@H](C)C(=O)O)[C@@H](C)O [CaPep13A],Hill Slope,[4],0.81 ± 0.04
same,Hill Slope,[5],0.94 ± 0.06
same,cleavage by CaBar1 protease,[5],cleavable
same,cleavage by CaBar1 protease,[5]; listed as GFRLTNFGYFEPA,specifically cleaved
same,EC50,"[10]; +CaBar1 strain, lycopene, 1-h preincubation before adding peptides, 8-h incubation",1000 nM
same,"effect of CaBar1 on color onset, lycopene readout","[10]; liquid culture, same peptide concentrations, 1-h preincubation, 8-h incubation (FIG. 37)",diminishes color onset
CC(C)C[C@H](NC(=O)[C@H](Cc1c[nH]cn1)NC(=O)[C@H](CS)NC(=O)[C@@H](N)Cc1c[nH]c2ccccc12)C(=O)N1CCC[C@H]1C(=O)NCC(=O)N[C@@H](CCC(N)=O)C(=O)NCC(=O)N[C@@H](CS)C(=O)O [AfuPep] (H-WCHLPGQGC-OH; N-terminus and C-terminus assumed),activation of fungal cognate receptors by AfuPep,[11],nor did AfuPep activate fungal cognate receptors
same,fluorescence intensity relative to background fluorescence,[12],two-fold
same,fold lower AfuPep concentration at which receiver strain responds vs sender strain,[13],8 fold
same,LoD / color detection limit in liquid culture,[14],50 nM
same,limit of detection (LoD) in liquid culture,[14],~30 nM
same,time to faint visible color in culture pellets,[14],one hour
same,time to obvious color change in liquid culture,[14],two hours
same,lycopene production in the presence of human biospecimens,[15],produces lycopene only when AfuPep is present
same,fold change of fluorescence readout compared to background,"[16]; AfuSte2 on plasmid, inducible mCherry in optimized strain, FIG. 1B","around 4,000 fold"
same,EC50,[16]; [20],~40 nM
same,activation fold change,[16]; [20],"2,900 fold"
same,basal expression,[16]; [20],practically zero
same,maximal activation,[16]; [20],"~2,900 A.U."
same,EC50,[16]; [21],~10 nM
same,activation fold change,[16]; [21],19 fold
same,maximal activation,[16]; [21],~450 A.U.
same,basal expression,[16]; older strain with natural signaling pathway (yMJ194/pDR01),~20 A.U.
same,EC50,"[16]; read-out: EC50 value (concentration of peptide required for half-maximal activation), AfuSte2 on plasmid, inducible mCherry in optimized strain, FIG. 1B",~100 nM
SDS,concentration that does not impact the vitality and function of the live yeast biosensor,[3],up to 0.01%
Schizosaccharomyces japonicus serine carboxypeptidase Sxa2 (SjSxa2) (enzyme),shift of apparent EC50 on the cognate GPCR with the protease co-expressed (order of magnitude),[17],1
GARLTNFGYFEPG [CaPep2A],Hill Slope,[4],1.4 ± 0.3
same,Hill Slope,[5],1.6 ± 0.3
same,EC50,[5],~40 nM
same,cleavage by CaBar1 protease,[5],does not cleave
same,EC50,[6],~1 nM
same,color development in yeast pellets,[18],robust orange color development
Schizosaccharomyces octosporus serine carboxypeptidase Sxa2 (SoSxa2) (enzyme) MNLAVHVLLLSFLLYTVHSFPAYPPYPIYPRSSLNSSNASSVPIPQPSYNSSSKAMNPDLVTSLPEYSGSLPELYSGYLSAENFKQIFYTFAPAITPTDKFIVWLQGGPGCAGTLGFFSENGPIILDPNHQTPQDNPNSWTRFANMMWIDQPFGTGYSQGSPLASTVSIATSDFIQTLKSFYAKFPEMKEKELYLVGESYGSVWGAYFAQALRSDPELHAIPFGGLGIISGLLSDYETQNTITASMWLDHVNKMGLYYTNESAEVSTFFAAKNQQCGYAEVLERMQFPAEQTPIPKPRVNLTNSFSKKKRQADSDSDSGNIKEAFQMITDCDTYTLTDFLLYLKNHCMITYDITLDCSFNSNNDPLTTYLNRKDVQKQLHAIHVESALTSSKGIFGNGCNYDVYGDIVKNGAPSILEEAIPELVQNYKVSFLAGALDFQLLWTGSLLALQNTTWNGWQGFQEIPDLNSPFGFTLDERNLAFTLSNKVGHMAPSKDPSMVIDWLQKTLLG,shift of apparent EC50 on the cognate GPCR with the protease co-expressed (orders of magnitude),[19],1.5
